Here are results for 6 substances from publication PMC5940834, “Discovery and functional characterisation of a luqin-type neuropeptide signalling system in a deuterostome” (Scientific Reports, 2018).

“Also recorded” adds a separate entry of the source. Where no end group is shown, it is not given here.

Assay [1] deals with ArLQR1. Nature of the assay: ArLQ/neuropeptide activation of ArLQR1, bioluminescence in CHO-ArLQR1 cells. As to conditions: ArLQ 1 × 10^−4 to 1 × 10^−14 M, other neuropeptides 1 × 10^−4 to 1 × 10^−13 M. The format is cell-based, Asterias rubens. The text has this: (§1) To enable pharmacological characterisation of ArLQR1 and ArLQR2, cDNAs encoding these receptors were amplified by PCR, using A. rubens radial nerve cord total cDNA, specific primers (see supplementary Table 1 for a list of the primers) and Q5 polymerase (NEB; Cat. No. M0491S). First, the receptor cDNAs were ligated into the phagemid vector pBluescript II SK + (Agilent Technologies; Cat. No. 212205) using a blunt-end ligation method. The vector was cut with the restriction enzyme EcoRV (NEB; Cat. No. R0195S) and the ligation was performed using T4 DNA ligase (NEB; Cat. No. M0202S). Successful ligation was confirmed by PCR, restriction enzyme digestion and sequencing (TubeSeq service; Eurofins Genomics). The receptor cDNAs were then sub-cloned into the eukaryotic expression vector pcDNA 3.1( + ) (Invitrogen; Cat. No. V790-20). To accomplish this, forward primers included the partial Kozak consensus sequence (ACC) and a sequence corresponding to the first 21 bases of the ArLQR1 or ArLQR2 ORFs, including the start codon. Reverse primers consisted of a stop codon and a sequence reverse complementary to the ORF encoding the C-terminal region of ArLQR1 or ArLQR2 (see supplementary Table 1 for a list of the primers). PCR was performed using Q5 polymerase NEB and the cDNA products were ligated into the pcDNA 3.1(+) vector that had been cut previously with the restriction enzyme EcoRV by performing blunt-end ligation with T4 DNA ligase NEB. The direction of the insert was determined by restriction enzyme digestion and sequencing. The ArLQR1 and ArLQR2 sequences have been deposited in the GenBank database under accession numbers MG744509 and MG744510 respectively.
(§2) To determine if ArLQ acts as a ligand for ArLQR1 and/or ArLQR2, the receptors were expressed in Chinese hamster ovary cells (CHO-K1) stably expressing the calcium-sensitive bioluminescent reporter GFP-aequorin fusion protein (G5A)[43]. CHO-K1 cells were maintained at 37 °C in T25 culture flasks (USA Scientific; Cat. No. CC7682-4325) containing 6 ml of DMEM/F12 Nutrient Mixture medium (Thermo Fisher Scientific; Cat. No. 11039047) supplemented with 10% fetal bovine serum (Thermo Fisher Scientific; Cat. No. 10082147), Antibiotic-Antimycotic 1 × (Thermo Fisher Scientific, Cat. No. 15240062) and 200 μg/ml of Geneticin G418 sulfate (Thermo Fisher Scientific, Cat. No. 10131035). Upon reaching a confluency of approximately 80%, cells were transfected with the plasmids containing ArLQR1 or ArLQR2 receptor cDNAs and a plasmid containing the promiscuous Gα-16 protein that can couple a wide range of GPCRs to the phospholipase C pathway. The transfection was achieved using 5 µg of each plasmid and 8 μl of the transfection reagent Lipofectamine 3000 following the manufacturer instructions (Thermo Fisher Scientific; Cat. No. L3000008). Two days post-transfection, the culture medium was removed and the cells detached by the addition of 2 ml of 1 × PBS buffer pH 7.4 (Thermo Fisher Scientific; Cat. No. 10010023) supplemented with UltraPure EDTA 0.5 M pH 8.0 (Thermo Fisher Scientific; Cat. No. 15575020) to a final concentration of 5 mM EDTA. […] Luminescence levels were recorded over a 35-second period using a FLUOstar Omega Plate Reader (BMG LABTECH; FLUOstar Omega Series multi-mode microplate reader). […]

The subject of assay [2] is ArLQR2. Nature of the assay: ArLQ/neuropeptide activation of ArLQR2, bioluminescence in CHO-ArLQR2 cells. As to conditions: ArLQ 1 × 10^−4 to 1 × 10^−14 M, other neuropeptides 1 × 10^−4 to 1 × 10^−13 M. The format is cell-based, Asterias rubens.
Description: as §1, §2

The subject of assay [3] is cardiac stomach preparations. Conditions: "all three of these preparations"; cited from earlier work. As to the method:
Informed by findings from analysis of the expression of ArLQP in A. rubens (see results), synthetic ArLQ (custom synthesized by PPR Ltd, Fareham, UK) was tested on tube foot and cardiac stomach preparations from A. rubens. […] Tube foot preparations were obtained by dissecting from starfish arms a small square-shaped piece of ambulacral body wall containing a single tube foot stem and its associated ampulla. Co ...

The test system of assay [4] is tube foot preparations. As to conditions: A. rubens; cited from earlier work. An excerpt: Figure 6 ArLQ causes relaxation of in vitro preparations of tube feet from A. rubens. […] (B). […] Tube foot preparations were obtained by dissecting from starfish arms a small square-shaped piece of ambulacral body wall containing a single tube foot stem and its associated ampulla. Co ...

In assay [5] the test system is heart ventricle. Conditions: Achatina fulica; cited from earlier work. The text has this:
(§3) Neuropeptides play a central role in the control of diverse physiological processes and behaviours in animals. Furthermore, neuropeptides are evolutionarily ancient mediators of neuronal signalling and a large number of different neuropeptide signalling pathways were already present in the common ancestor of protostomes and deuterostomes[1]–[3]. The discovery of neuropeptide signalling systems has been enabled by a variety of experimental strategies. The luqin-type neuropeptide system that is the focus of this study was first discovered using a molecular biological approach where the object ...

Assay [6] concerns neurons and muscles involved in feeding behaviour. Conditions: Achatina fulica; cited from earlier work.
Description: as §3

The subject of assay [7] is GRL106. As to conditions: orphan G-protein coupled receptor; cited from earlier work.
Description: as §3

Assay [8] deals with auricle preparations. Conditions: Lymnaea stagnalis; cited from earlier work.
Description: as §3

The subject of assay [9] is receptor for the luqin-type peptide WRPGRFamide. As to conditions: cited from earlier work.
Description: as §3

Turning to “GGGVPHVFQSGGIF-NH2 [ArTK2, tachykinin-like peptide from A. rubens]”, the “activation of ArLQR1 (in words)” value in [1] is recorded as “none of them caused activation of the receptors”; in [1] (listed as ArTKL) it was “do not activate the receptors”. The “activation of ArLQR2 (in words)” value in [2] is recorded as “none of them caused activation of the receptors”; in assay [2] (listed as ArTKL) it was “do not activate the receptors”.

As for SGPYSFNSGLTF-NH2 [S2], the “activation of ArLQR1 (in words)” value was “do not activate the receptors” in assay [1] and “none of them caused activation of the receptors” in assay [1] (listed as SALMFamide-2). For the same substance, the “relaxant effect on cardiac stomach and other preparations (earlier studies)” value in assay [3] is reported as “relaxant of all three of these preparations”. The “relaxation of tube foot preparations (earlier studies)” value in assay [4] is given as “known tube foot relaxant; also recorded: causes relaxation of tube foot preparations; also recorded: relaxant of all three of these preparations”. Besides, the “activation of ArLQR2 (in words)” value is on record as “do not activate the receptors” in assay [2] and “none of them caused activation of the receptors” in [2] (listed as SALMFamide-2).

Turning to “SGQWRPQGRF-NH2 [ACEP-1, homolog of luqin (…amide) discovered in the snail Achatina fulica]”, the “effect on beat of the heart ventricle” value in assay [5] was “potentiating the beat of the heart ventricle”. In assay [6], the “effect on neurons and muscles involved in feeding behaviour” value is “excitatory effects on neurons and muscles involved in feeding behaviour”.

In the case of “TPHWRPQGRF-NH2 [LyCEP, luqin-type peptide (…amide) discovered in the pond snail Lymnaea stagnalis]”, in [7], the “receptor identified for the peptide (GRL106)” value is “identified as the receptor for this peptide”. For the same substance, the “effect on beating frequency of auricle preparations” value in assay [8] is “increases the beating frequency of auricle preparations”.

On to “WRPGRF-NH2 [luqin-type peptide of the annelid Platynereis dumerilii]”, for which the “receptor identified for the peptide (P. dumerilii)” value in assay [9] is recorded as “has been identified in the annelid Platynereis dumerilii”.

For “pQDRSKAMQAERTGQLRRLNPRF-NH2 [ArNPY, Neuropeptide Y-type peptide from A. rubens]”, the “activation of ArLQR1 (in words)” value in assay [1] is on record as “do not activate the receptors; also recorded: none of them caused activation of the receptors”. Further, the “activation of ArLQR2 (in words)” value in [2] was “do not activate the receptors; also recorded: none of them caused activation of the receptors”.
